target: T1, GST-Xa-hAAK1 (Homo sapiens, UniProt Q2M2I8); assay: AAK1 Kinase Assay; type: biochemical; settings: IC50 (nM), ATP 22 μM; 3 hours at room temperature; Caliper LabChip 3000
T1 construct: made in house
Protocol: The assays were performed in U-bottom 384-well plates. […] The reactions were initiated by the combination of bacterially expressed, GST-Xa-hAAK1 with substrates and test compounds. The reactions were incubated at room temperature for 3 hours and terminated by adding 60 μl of 35 mM EDTA buffer to each sample. The reactions were analyzed on the Caliper LabChip 3000 (Caliper, Hopkinton, Mass.) by electrophoretic separation of the fluorescent substrate and phosphorylated product. […] Compounds were dissolved at 10 mM in dimethylsulfoxide (DMSO) and evaluated at eleven concentrations. IC50 values were derived by non-linear regression analysis.

T1 sequence (Q2M2I8 whole entry): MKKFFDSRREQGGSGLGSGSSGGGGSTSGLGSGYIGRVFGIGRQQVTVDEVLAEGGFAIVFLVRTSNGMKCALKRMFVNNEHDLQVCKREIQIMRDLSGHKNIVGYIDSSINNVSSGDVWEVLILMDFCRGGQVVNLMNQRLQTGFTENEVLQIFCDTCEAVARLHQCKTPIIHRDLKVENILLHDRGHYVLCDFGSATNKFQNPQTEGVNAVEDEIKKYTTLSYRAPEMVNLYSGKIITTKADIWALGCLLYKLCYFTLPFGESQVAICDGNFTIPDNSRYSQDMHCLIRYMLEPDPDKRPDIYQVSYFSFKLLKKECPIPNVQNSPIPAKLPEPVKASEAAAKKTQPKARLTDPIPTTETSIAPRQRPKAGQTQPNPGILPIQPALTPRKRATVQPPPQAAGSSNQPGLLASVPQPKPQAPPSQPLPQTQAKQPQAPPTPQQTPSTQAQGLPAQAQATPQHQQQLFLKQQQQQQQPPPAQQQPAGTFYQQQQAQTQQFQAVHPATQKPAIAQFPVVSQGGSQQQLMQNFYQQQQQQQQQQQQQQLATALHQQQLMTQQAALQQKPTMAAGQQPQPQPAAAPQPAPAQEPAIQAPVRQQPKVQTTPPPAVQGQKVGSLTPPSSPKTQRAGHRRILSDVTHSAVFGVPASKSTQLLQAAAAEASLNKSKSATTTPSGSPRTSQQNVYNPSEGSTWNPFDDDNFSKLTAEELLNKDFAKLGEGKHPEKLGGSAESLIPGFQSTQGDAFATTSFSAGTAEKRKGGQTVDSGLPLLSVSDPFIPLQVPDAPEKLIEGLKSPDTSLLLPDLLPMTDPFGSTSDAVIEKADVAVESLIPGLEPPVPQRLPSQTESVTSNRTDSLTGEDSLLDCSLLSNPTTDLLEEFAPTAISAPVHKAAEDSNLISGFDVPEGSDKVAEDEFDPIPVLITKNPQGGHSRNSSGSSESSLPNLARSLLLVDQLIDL

SMILES	IC50 [nM]
CC(C)C[C@@H](N)C(=O)Nc1ccc(-c2cnco2)c(N(C)C)c1 [Example 42, 2-Amino-N-(3-(dimethylamino)-4-(oxazol-5-yl)phenyl)-4-methylpentanamide]	860
CC(C)C[C@@H](N)C(=O)Nc1ccc(-c2ccncc2)cc1C(F)(F)F [Example 111, (R)-2-Amino-4-methyl-N-(4-(pyridin-4-yl)-2-(trifluoromethyl)phenyl)pentanamide]	300
COc1cc(NC(=O)[C@@H]2CCCN2C(C)C)ccc1-c1cnco1 [Example 81, (S)-1-Isopropyl-N-(3-methoxy-4-(oxazol-5-yl)phenyl)pyrrolidine-2-carboxamide]	510
CC(C)C[C@@H](N)C(=O)Nc1ccc(-c2ccncc2)cc1-c1ccsc1 [Example 113, (R)-2-Amino-4-methyl-N-(4-(pyridin-4-yl)-2-(thiophen-3-yl)phenyl)pentanamide]	500
COc1cc(NC(=O)[C@H](N)CO)ccc1-c1cnco1 [Example 75, (R)-2-Amino-3-hydroxy-N-(3-methoxy-4-(oxazol-5-yl)phenyl)propanamide]	5100
COc1cnccc1-c1ccc(NC(=O)[C@H](N)CC(C)C)cc1 [Example 44, (R)-2-Amino-N-(4-(3-methoxypyridin-4-yl)phenyl)-4-methylpentanamide]	140
COc1cc(NC(=O)[C@H]2C[C@@H](F)CN2)ccc1-c1cnco1 [Example 90, (2R,4R)-4-Fluoro-N-(3-methoxy-4-(oxazol-5-yl)phenyl)pyrrolidine-2-carboxamide]	1100
COc1cc(NC(=O)[C@H](N)CC2CCC2)ccc1-c1cnco1 [Example 6, (R)-2-Amino-3-cyclobutyl-N-(3-methoxy-4-(oxazol-5-yl)phenyl)propanamide]	78
COc1cc(NC(=O)C2NCCCC2C(C)C)ccc1-c1cnco1 (single isomer, unassigned) [Example 87, 3-Isopropyl-N-(3-methoxy-4-(oxazol-5-yl)phenyl)piperidine-2-carboxamide]	280
COc1cc(NC(=O)[C@H](N)CC(C)C)ccc1-c1cnc[nH]1 [Example 109, (R)—N-(4-(1H-Imidazol-5-yl)-3-methoxyphenyl)-2-amino-4-methylpentanamide]	790
CCOc1cc(NC(=O)[C@H](N)CC(C)C)ccc1-c1cnco1 [Example 17, (R)-2-Amino-N-(3-ethoxy-4-(oxazol-5-yl)phenyl)-4-methylpentanamide]	66
COc1cc(NC(=O)C(N)CC(C)C)ccc1-c1ccnc(N)c1 (stereo not drawn) [Example 45, 2-Amino-N-(4-(2-aminopyridin-4-yl)-3-methoxyphenyl)-4-methylpentanamide]	150
COc1cc(NC(=O)C2CNC(=O)N2)ccc1-c1cnco1 (stereo not drawn) [Example 57, N-(3-Methoxy-4-(oxazol-5-yl)phenyl)-2-oxoimidazolidine-4-carboxamide]	780
NC(C(=O)Nc1ccc(-c2ccncc2)cc1)C1CCCCC1C(F)(F)F (mixture of isomers) [Example 122, 2-Amino-N-(4-(pyridin-4-yl)phenyl)-2-(2-(trifluoromethyl)cyclohexyl)acetamide]	64
CC(C)C[C@@H](N)C(=O)Nc1ccc(-c2cnco2)c(OC(F)(F)F)c1 [Example 106, (R)-2-Amino-4-methyl-N-(4-(oxazol-5-yl)-3-(trifluoromethoxy)phenyl)pentanamide]	160
CNC1(C(=O)Nc2ccc(-c3cnco3)c(OC)c2)CC1 [Example 58, N-(3-Methoxy-4-(oxazol-5-yl)phenyl)-1-(methylamino)cyclopropanecarboxamide]	4400
COc1cc(NC(=O)C2NCCCC2C(C)C)ccc1-c1cnco1 (stereo not drawn) [Example 85, 3-Isopropyl-N-(3-methoxy-4-(oxazol-5-yl)phenyl)piperidine-2-carboxamide]	8
CC1CCCCC1C(N)C(=O)Nc1ccc(-c2ccncc2)cc1 (mixture of isomers) [Example 121, 2-Amino-2-(2-methylcyclohexyl)-N-(4-(pyridin-4-yl)phenyl)acetamide]	140

Source: patent US10253027B2, “Aryl lactam kinase inhibitors” (Bristol-Myers Squibb Company, priority 2013, dated 2019)
